Results taken from PMC3813382 (The Journal of General Physiology, 2013).
Changes are numbered by the printed parent chain.

Tests used:
L209T Slo2.1 channels = target: T1, L209T Slo2.1 channels (Homo sapiens, UniProt Q6UVM3, L209T); experiment: Activation of ISlo2.1 by NFA, two-electrode voltage clamp in oocytes; format: cell-based
T1 sequence (Q6UVM3 1-1135 L209T): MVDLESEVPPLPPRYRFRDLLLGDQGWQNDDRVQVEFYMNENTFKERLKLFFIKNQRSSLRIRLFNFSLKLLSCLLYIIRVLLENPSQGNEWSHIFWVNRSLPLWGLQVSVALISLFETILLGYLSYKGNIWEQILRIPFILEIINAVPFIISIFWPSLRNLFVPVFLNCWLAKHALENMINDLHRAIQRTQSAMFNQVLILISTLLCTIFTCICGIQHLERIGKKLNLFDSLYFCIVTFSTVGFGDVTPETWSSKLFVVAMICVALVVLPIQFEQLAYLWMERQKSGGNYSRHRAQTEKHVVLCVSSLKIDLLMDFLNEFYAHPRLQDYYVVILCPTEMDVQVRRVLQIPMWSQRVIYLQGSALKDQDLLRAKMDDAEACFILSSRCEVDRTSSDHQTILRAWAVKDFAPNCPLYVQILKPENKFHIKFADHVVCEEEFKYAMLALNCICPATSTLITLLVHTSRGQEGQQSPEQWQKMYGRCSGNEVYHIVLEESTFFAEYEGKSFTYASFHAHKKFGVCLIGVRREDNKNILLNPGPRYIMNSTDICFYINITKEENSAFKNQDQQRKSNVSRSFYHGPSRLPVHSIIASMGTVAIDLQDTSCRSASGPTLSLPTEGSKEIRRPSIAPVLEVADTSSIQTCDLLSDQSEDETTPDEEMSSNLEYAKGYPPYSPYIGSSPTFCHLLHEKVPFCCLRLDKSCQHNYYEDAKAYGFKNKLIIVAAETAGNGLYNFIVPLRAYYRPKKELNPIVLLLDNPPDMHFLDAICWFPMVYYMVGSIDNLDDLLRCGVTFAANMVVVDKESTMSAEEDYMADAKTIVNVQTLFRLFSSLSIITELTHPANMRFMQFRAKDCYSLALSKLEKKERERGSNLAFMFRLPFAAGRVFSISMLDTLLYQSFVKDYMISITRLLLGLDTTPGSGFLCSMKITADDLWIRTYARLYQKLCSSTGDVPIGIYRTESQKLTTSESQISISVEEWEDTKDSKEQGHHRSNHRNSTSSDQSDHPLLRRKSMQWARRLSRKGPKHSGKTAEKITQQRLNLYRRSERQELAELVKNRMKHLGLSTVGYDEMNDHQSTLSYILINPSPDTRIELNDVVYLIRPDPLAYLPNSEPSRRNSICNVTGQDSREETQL

A266G Slo2.1 channels = target: T2, A266G Slo2.1 channels (Homo sapiens, UniProt Q6UVM3, A266G); experiment: as above; format: cell-based
T2 sequence (Q6UVM3 1-1135 A266G): T1 sequence (Q6UVM3 1-1135 L209T) with T209L, A266G

EC50 (L209T Slo2.1 channels): 106 µM | Hill coefficient nH of NFA activation (L209T Slo2.1 channels; L209T): 1.39 ± 0.12 | NFA sensitivity of L209T relative to WT Slo2.1 (L209T Slo2.1 channels; L209T vs WT): 20 fold | EC50 (A266G Slo2.1 channels): 380 ± 30 µM | Hill coefficient nH of NFA activation (A266G Slo2.1 channels; A266G): 1.2 ± 0.03
SMILES: O=C(O)c1cccnc1Nc1cccc(C(F)(F)F)c1 [NFA, niflumic acid]
